Test results as given in patent US12552785B2, “Pyrazolo[1,5-α]pyridine derivative, preparation method therefor, and composition and use thereof” (SHENZHEN ZHONGGE BIOLOGICAL TECHNOLOGY CO., LTD., priority 2020, dated 2026).

What was measured:
Ba/F3-KIF5B-RET cell = molecular target: T1, Ba/F3-KIF5B-RET cell (Homo sapiens, UniProt P07949); experiment: CellTiter-Glo luminescence assay for inhibitory activity against Ba/F3-KIF5B-RET cell; assay type: cell-based; conditions: Ba/F3-KIF5B-RET cells, 72 h
T1 construct: fused on or other part: P33176 (Kinesin-1 heavy chain)
T1 sequence (P07949 whole entry, stated change not applied, the tested form may be a part): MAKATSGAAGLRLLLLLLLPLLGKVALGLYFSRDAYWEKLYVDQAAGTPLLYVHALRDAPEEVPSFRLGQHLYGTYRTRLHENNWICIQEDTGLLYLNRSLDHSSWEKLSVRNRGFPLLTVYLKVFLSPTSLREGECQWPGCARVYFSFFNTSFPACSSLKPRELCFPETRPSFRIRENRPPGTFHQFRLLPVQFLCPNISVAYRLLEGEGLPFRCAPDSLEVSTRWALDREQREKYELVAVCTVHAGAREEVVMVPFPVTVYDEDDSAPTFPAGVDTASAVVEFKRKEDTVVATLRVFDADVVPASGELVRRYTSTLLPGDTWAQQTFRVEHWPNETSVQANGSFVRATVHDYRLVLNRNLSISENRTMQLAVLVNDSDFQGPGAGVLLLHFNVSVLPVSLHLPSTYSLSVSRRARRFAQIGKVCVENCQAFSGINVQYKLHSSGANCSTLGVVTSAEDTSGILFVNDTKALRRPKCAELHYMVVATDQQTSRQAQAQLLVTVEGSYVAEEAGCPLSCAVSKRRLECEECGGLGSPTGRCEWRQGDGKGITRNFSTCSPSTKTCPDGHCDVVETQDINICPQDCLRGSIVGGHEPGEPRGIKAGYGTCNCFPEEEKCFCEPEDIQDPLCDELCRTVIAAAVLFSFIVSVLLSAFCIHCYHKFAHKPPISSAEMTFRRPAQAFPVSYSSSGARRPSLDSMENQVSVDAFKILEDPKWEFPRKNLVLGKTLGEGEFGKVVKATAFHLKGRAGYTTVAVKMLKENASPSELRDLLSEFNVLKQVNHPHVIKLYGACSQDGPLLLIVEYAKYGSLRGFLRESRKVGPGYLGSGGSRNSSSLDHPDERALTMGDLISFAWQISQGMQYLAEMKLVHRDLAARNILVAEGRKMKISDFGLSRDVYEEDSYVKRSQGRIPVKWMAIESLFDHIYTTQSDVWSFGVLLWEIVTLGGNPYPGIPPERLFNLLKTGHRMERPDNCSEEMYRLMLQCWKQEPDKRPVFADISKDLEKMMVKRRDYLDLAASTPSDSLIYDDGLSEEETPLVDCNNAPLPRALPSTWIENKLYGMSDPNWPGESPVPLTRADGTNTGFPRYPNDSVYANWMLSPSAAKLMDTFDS
Excerpt: (c) In Vitro Screening Experiment—CellTiter-Glo Luminescence Assay for Testing the Inhibitory Activity of Compounds Against Ba/F3-KIF5B-RET Cell Experimental Procedure: 1. The mammalian cell expression vector containing human KIF5B-RET cDNA was introduced into Ba/F3 cells using the Neon® transfection system method, and the surviving clones screened by puromycin were subjected to cell growth inhibitory function experiments and Western blotting to verify cell lines with stable and high expression of RET. 2. […] 3. The test compound (5 mM stock) was diluted 2.5 folds to 2 mM with 100% dimethyl sulfoxide; and the compound was diluted into 10 concentrations at an equal ratio of 1:3 in a 384-well dilution plate. 4. […] 6. […] 7. By fitting the data with XLFit 5.0 based on the parameters formula, the IC50 value was calculated as: Y=Bottom+(Top−Bottom)/(1+10^((Log IC50−X)*HillSlope)).

VEGFR2 = VEGFR2 (Homo sapiens, UniProt P35968); experiment: HTRF method for testing the inhibitory activity of compounds against VEGFR2; assay type: biochemical; conditions: IC50 by nonlinear regression, read-out: VEGFR2 kinase activity
Chain of VEGFR2 (P35968 20-1356, species assumed): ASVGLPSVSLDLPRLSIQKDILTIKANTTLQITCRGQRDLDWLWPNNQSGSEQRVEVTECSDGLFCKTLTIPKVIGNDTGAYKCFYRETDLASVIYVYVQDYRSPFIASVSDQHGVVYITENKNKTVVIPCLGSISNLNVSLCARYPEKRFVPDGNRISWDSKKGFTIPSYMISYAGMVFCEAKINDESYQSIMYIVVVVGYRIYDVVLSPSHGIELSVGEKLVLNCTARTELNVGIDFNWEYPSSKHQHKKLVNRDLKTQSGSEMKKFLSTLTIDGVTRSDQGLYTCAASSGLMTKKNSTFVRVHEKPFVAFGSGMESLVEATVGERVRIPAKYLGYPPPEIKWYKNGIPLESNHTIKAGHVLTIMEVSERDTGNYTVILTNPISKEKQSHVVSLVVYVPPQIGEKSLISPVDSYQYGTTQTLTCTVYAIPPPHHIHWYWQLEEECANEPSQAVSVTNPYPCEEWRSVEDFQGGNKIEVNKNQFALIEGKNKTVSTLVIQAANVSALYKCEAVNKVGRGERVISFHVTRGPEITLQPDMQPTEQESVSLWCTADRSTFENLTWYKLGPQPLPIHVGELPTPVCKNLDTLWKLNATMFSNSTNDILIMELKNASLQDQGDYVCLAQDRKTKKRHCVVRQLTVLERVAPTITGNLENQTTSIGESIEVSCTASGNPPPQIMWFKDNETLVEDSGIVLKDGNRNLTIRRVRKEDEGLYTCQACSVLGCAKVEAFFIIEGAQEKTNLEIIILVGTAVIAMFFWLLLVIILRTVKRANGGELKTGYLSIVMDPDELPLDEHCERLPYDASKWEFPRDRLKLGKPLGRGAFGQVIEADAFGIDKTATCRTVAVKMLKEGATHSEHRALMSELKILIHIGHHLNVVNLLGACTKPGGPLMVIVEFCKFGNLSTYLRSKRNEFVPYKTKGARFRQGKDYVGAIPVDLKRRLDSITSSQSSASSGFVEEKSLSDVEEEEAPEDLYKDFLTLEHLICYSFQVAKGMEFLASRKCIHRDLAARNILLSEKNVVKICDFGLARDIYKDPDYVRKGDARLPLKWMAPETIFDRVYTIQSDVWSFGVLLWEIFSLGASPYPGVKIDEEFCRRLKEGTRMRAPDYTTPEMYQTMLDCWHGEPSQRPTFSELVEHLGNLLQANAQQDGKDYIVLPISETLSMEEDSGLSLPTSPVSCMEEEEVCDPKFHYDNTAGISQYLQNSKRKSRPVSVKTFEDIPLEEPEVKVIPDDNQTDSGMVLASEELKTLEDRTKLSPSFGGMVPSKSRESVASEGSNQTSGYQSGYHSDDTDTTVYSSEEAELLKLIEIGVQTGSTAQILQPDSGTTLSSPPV
Method: (b) In Vitro Screening Experiment—HTRF Method for Testing the Inhibitory Activity of Compounds Against VEGFR2 Experimental Procedure: 1. […] The test compound (5 mM stock solution) was diluted 5 folds to 1 mM with 100% dimethyl sulfoxide; the compound was diluted into 10 concentrations at an equal ratio of 1:3 in a 384-well dilution plate. 3. […] 6. […] The reaction solution was centrifuged at 1000 g for 30 s, and then sealed, and incubated at room temperature for 40 min. 8. […] 10. […] 11. […] 12. IC50 was calculated with software GraphPad 6.0 by fitting inhibition values and logarithms of compound concentrations to a nonlinear regression (dose response−variable slope).

RET = RET (Homo sapiens, UniProt P07949); experiment: HTRF method for testing the inhibitory activity of compounds against RET; assay type: biochemical; conditions: IC50 by nonlinear regression, read-out: RET kinase activity
Chain of RET (P07949 29-1114): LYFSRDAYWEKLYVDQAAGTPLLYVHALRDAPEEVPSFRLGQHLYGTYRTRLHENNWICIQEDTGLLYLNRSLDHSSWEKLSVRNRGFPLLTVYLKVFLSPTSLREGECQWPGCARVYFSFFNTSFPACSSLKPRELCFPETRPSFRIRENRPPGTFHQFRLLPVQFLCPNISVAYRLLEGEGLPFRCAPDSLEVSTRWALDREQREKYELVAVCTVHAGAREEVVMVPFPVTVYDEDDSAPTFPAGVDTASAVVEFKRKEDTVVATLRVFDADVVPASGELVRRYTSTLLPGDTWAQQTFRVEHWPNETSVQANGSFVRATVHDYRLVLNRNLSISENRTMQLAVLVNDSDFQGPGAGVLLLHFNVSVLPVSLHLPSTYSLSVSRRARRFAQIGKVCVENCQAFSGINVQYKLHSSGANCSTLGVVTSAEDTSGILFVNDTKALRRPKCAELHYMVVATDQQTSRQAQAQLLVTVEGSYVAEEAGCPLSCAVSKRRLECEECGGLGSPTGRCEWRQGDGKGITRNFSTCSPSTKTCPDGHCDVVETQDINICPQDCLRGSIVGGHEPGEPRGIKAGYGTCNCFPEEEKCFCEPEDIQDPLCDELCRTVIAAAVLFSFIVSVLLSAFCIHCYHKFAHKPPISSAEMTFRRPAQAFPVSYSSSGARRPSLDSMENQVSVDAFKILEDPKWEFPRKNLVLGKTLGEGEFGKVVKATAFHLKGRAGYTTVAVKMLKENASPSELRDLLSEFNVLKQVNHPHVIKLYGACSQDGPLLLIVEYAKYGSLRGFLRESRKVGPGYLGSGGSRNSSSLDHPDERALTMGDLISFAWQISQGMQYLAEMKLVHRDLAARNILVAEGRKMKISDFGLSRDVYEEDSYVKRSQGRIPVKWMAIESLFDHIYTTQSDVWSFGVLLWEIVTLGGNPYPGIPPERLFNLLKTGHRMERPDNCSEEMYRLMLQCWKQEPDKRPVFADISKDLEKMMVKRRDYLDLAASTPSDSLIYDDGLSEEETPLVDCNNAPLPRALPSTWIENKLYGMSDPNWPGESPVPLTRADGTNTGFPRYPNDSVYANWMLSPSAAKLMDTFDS
Method: (a) In Vitro Screening Experiment-HTRF Method for Testing the Inhibitory Activity of Compounds Against RET Experimental Procedure: 1. […] 2. The test compound (5 mM stock solution) was diluted 5 folds to 1 mM with 100% dimethyl sulfoxide; the compound was diluted into 10 concentrations at an equal ratio of 1:3 in a 384-well dilution plate. 3. 0.2 μL of the serially diluted compound was added to a 384-well plate using an Echo 550 pipetting system, 2 replicate wells for each concentration, and the final concentration of dimethyl sulfoxide was 0.5% (v/v). […] 6. […] The reaction solution was centrifuged at 1000 g for 30 s, and then sealed, and incubated at room temperature for 30 min. 8. […] 10. […] 11. […] IC50 was calculated with software GraphPad 6.0 by fitting inhibition values and logarithms of compound concentrations to a nonlinear regression (dose response−variable slope).

| GI50 (Ba/F3-KIF5B-RET cell) | IC50 (VEGFR2) | IC50 (RET) | SMILES |
| --- | --- | --- | --- |
| 40.7 nM | 59.2 nM | 1.3 nM | CCN(Cc1ccc(-n2cc(F)cn2)nc1)c1ccc(-c2cc(OCC(C)(C)O)cn3ncc(C#N)c23)cn1 [Compound 57] |
| 39.3 nM | 1980 nM | – | C[C@@H](c1ccc(-n2cc(Cl)cn2)nc1)N(C)c1ccc(-c2cc(OCC(C)(C)O)cn3ncc(C#N)c23)cn1 [Compound 45, (S)-4-(6-((1-(6-(4-chloro-1H-pyrazol-1-yl)pyridin-3-yl)ethyl)(methyl)amino)pyridine-3-yl)-6-(2-hydroxy-2-methylpropoxy)pyrazo[1,5-a]pyridine-3-carbonitrile] |
| 236 nM | > 5000 nM | 5.45 nM | C[C@@H](c1ccc(-n2cc(F)cn2)nc1)N(C)c1ccc(-c2cc(N3CCCCC3)cn3ncc(C#N)c23)cn1 [Compound 47, (S)-4-(6-((1-(6-(4-fluoro-1H-pyrazol-1-yl)pyridin-3-yl)ethyl)(methyl)amino)pyridine-3-yl)-6-(piperidin-1-yl)pyrazolo[1,5-a]pyridine-3-carbonitrile] |
| 380 nM | > 5000 nM | 3.79 nM | COCOc1cc(-c2ccc(N(C)[C@@H](C)c3ccc(-n4cc(F)cn4)nc3)nc2)c2c(C#N)cnn2c1 [Compound 55, (S)-4-(6-((1-(6-(4-fluoro-1H-pyrazol-1-yl)pyridin-3-yl)ethyl)(methyl)amino)pyridine-3-yl)-6-(methoxymethoxy)pyrazolo[1,5-a]pyridine-3-carbonitrile] |
| – | 5.62 nM | 0.29 nM | CNc1cc(-c2ccc(N(C)[C@@H](C)c3ccc(-n4cc(F)cn4)nc3)nc2)c2c(C#N)cnn2c1 [Compound 52, (S)-4-(6-((1-(6-(4-fluoro-1H-pyrazol-1-yl)pyridin-3-yl)ethyl)(methyl)amino)pyridine-3-yl)-6-(methylamino)pyrazolo[1,5-a]pyridine-3-carbonitrile] |
| 1.53 nM | 25.5 nM | 0.48 nM | C[C@@H](c1ccc(-n2cc(F)cn2)nc1)N(C)c1ccc(-c2cc(OCC(C)(C)O)cn3ncc(C#N)c23)cn1 [Compound 61, (S)-4-(6-((1-(6-(4-fluoro-1H-pyrazol-1-yl)pyridin-3-yl)ethyl)(methyl)amino)pyridine-3-yl)-6-(2-hydroxy-2-methylpropoxy)pyrazolo[1,5-a]pyridine-3-carbonitrile] |
| 11.6 nM | 43.9 nM | 0.98 nM | CCCNc1cc(-c2ccc(N(C)[C@@H](C)c3ccc(-n4cc(F)cn4)nc3)nc2)c2c(C#N)cnn2c1 [Compound 60] |
| – | 49.7 nM | 0.34 nM | C[C@@H](c1ccc(-n2cc(F)cn2)nc1)N(C)c1ccc(-c2cc(OCCF)cn3ncc(C#N)c23)cn1 [Compound 41, (S)-4-(6-((1-(6-(4-fluoro-1H-pyrazol-1-yl)pyridin-3-yl)ethyl)(methyl)amino)pyridine-3-yl)-6-(2-fluoroethoxy)pyrazolo[1,5-a]pyridine-3-carbonitrile] |
| – | 64.3 nM | 3.49 nM | C[C@@H](c1ccc(-n2cc(F)cn2)nc1)N(C)c1ccc(-c2cc(N3CCCC3)cn3ncc(C#N)c23)cn1 [Compound 59] |
| – | 21.1 nM | 0.3 nM | COCCOc1cc(-c2ccc(N(C)[C@@H](C)c3ccc(-n4cc(F)cn4)nc3)nc2)c2c(C#N)cnn2c1 [Compound 54, (S)-4-(6-((1-(6-(4-fluoro-1H-pyrazol-1-yl)pyridin-3-yl)ethyl)(methyl)amino)pyridine-3-yl)-6-(2-methoxyethoxy)pyrazolo[1,5-a]pyridine-3-carbonitrile] |
| – | 241 nM | 4.35 nM | CCc1cc(-c2ccc(N(C)[C@@H](C)c3ccc(-n4cc(F)cn4)nc3)nc2)c2c(C#N)cnn2c1 [Compound 66] |
| – | 361 nM | 4.56 nM | Cc1ccc([C@H](C)N(C)c2ccc(-c3cc(OCC(C)(C)O)cn4ncc(C#N)c34)cn2)cn1 [Compound 63] |
| – | 199 nM | 18 nM | CCN(CC)c1ccc([C@H](C)N(C)c2ccc(-c3cc(OCC(C)(C)O)cn4ncc(C#N)c34)cn2)cn1 [Compound 42, (S)-4-(6-((1-(6-(diethylamino)pyridin-3-yl)ethyl)(methyl)amino)pyridin-3-yl)-6-(2-hydroxy-2-methylpropoxy)pyrazolo[1,5-a]pyridine-3-carbonitrile] |
| – | 780 nM | 2.66 nM | C#Cc1cc(-c2ccc(N(C)[C@@H](C)c3ccc(-n4cc(F)cn4)nc3)nc2)c2c(C#N)cnn2c1 [Compound 65] |

The next lines start with the compound.

| SMILES | GI50 (Ba/F3-KIF5B-RET cell) | IC50 (VEGFR2) | IC50 (RET) |
| --- | --- | --- | --- |
| Cc1cnn(-c2ccc([C@H](C)N(C)c3ccc(-c4cc(OCC(C)(C)O)cn5ncc(C#N)c45)cn3)cn2)c1 [Compound 37] | 18.6 nM | 270 nM | – |
| C[C@H](Nc1ccc(-c2cc(OC[C@H]3CNCCO3)cn3ncc(C#N)c23)cn1)c1ccc(-n2cc(F)cn2)nc1 [Compound 4] | 12 nM | 0.31 nM | 0.18 nM |
| CC(C)(O)COc1cc(-c2ccc(NCc3ccc(-n4ccnc4)nc3)nc2)c2c(C#N)cnn2c1 [Compound 7] | 203 nM | 72.1 nM | 7.14 nM |
| CC(C)(O)COc1cc(-c2ccc(NCc3ccc(-n4cc(F)cn4)nc3)nc2)c2c(C#N)cnn2c1 [Compound 1, 4-(6-(((6-(4-fluoro-1H-pyrazol-1-yl)pyridin-3-yl)methyl)amino)pyridin-3-yl)-6-(2-hydroxy-2-methylpropoxy)pyrazolo[1,5-a]pyridine-3-carbonitrile] | 13.9 nM | 7.37 nM | 0.34 nM |
| CN(Cc1ccc2ncccc2c1)c1ccc(-c2cc(OCC(C)(C)O)cn3ncc(C#N)c23)cn1 [Compound 14, 6-(2-hydroxy-2-methylpropoxy)-4-(6-(methyl(quinolin-6-ylmethyl)amino)pyridin-3-yl)pyrazolo[1,5-a]pyridine-3-carbonitrile] | 220 nM | 347 nM | 16.6 nM |
| C[C@@H](c1ccc(-n2cc(F)cn2)nc1)N(C)c1ccc(-c2cc(N3CCC4(CC3)COC4)cn3ncc(C#N)c23)cn1 [Compound 25, (S)-4-(6-((1-(6-(4-fluoro-1H-pyrazol-1-yl)pyridin-3-yl)ethyl)(methyl)amino)pyridine-3-yl)-6-(2-oxo-7-azaspiro[3.5]nonan-7-yl)pyrazolo[1,5-a]pyridine-3-carbonitrile] | 14.7 nM | 61.1 nM | 0.54 nM |
| CCn1cc(-c2cc(-c3ccc(N(C)[C@@H](C)c4ccc(-n5cc(F)cn5)nc4)nc3)c3c(C#N)cnn3c2)cn1 [Compound 38, (S)-6-(1-ethyl-1H-pyrazol-4-yl)-4-(6-((1-(6-(4-fluoro-1H-pyrazol-1-yl)pyridine-3-yl)ethyl)(methyl)amino)pyridin-3-yl)pyrazolo[1,5-a]pyridine-3-carbonitrile] | 5.14 nM | 7.39 nM | 0.56 nM |
| CC(O)COc1cc(-c2ccc(N(C)[C@@H](C)c3ccc(-n4cc(F)cn4)nc3)nc2)c2c(C#N)cnn2c1 (stereo partly drawn) [Compound 36, (S)-4-(6-((1-(6-(4-fluoro-1H-pyrazol-1-yl)pyridin-3-yl)ethyl)(methyl)amino)pyridine-3-yl)-6-(2-hydroxypropoxy)pyrazolo[1,5-a]pyridine-3-carbonitrile] | 19.9 nM | 47 nM | 2.76 nM |
| CC(C)(O)COc1cc(-c2ccc(NCc3ccc(N4CCCC4=O)nc3)nc2)c2c(C#N)cnn2c1 [Compound 8, 6-(2-hydroxy-2-methylpropoxy)-4-(6-((6-(2-oxopyrrolidin-1-yl)pyridin-3-yl)methylamino)pyridine-3-yl)pyrazolo[1,5-a]pyridine-3-carbonitrile] | 68.5 nM | 170 nM | 9.4 nM |
| C=CCOc1cc(-c2ccc(N(C)[C@@H](C)c3ccc(-n4cc(F)cn4)nc3)nc2)c2c(C#N)cnn2c1 [Compound 31, (S)-4-(6-((1-(6-(4-fluoro-1H-pyrazol-1-yl)pyridin-3-yl)ethyl)(methyl)amino)pyridine-3-yl)-6-allyloxypyrazolo[1,5-a]pyridine-3-carbonitrile] | – | > 5000 nM | 269 nM |
| COc1cc(-c2ccc(N(C)[C@@H](C)c3ccc(-n4cc(F)cn4)nc3)nc2)c2c(C#N)cnn2c1 [Compound 40, (S)-4-(6-((1-(6-(4-fluoro-1H-pyrazol-1-yl)pyridin-3-yl)ethyl)(methyl)amino)pyridine-3-yl)-6-methoxypyrazolo[1,5-a]pyridine-3-carbonitrile] | – | 48.3 nM | 0.83 nM |
